From the NIST ThermoML archive (doi:10.1021/je0501843)

Assay: wn = mass fraction of the nth substance listed
Conditions: Fluid (supercritical or subcritical phases), isochoric method, w1 = 0.5001

FC(F)C(F)(F)F [pentafluoroethane] + FCF
Conditions | mass density [kg/m3]
363 K, 13894 kPa | 858.1
364 K, 6970 kPa | 475.8
364 K, 7223 kPa | 525.7
364 K, 7494 kPa | 571.2
364 K, 7828 kPa | 614.6
364 K, 10192 kPa | 760.2
364 K, 14207 kPa | 858
365 K, 7077 kPa | 475.8
365 K, 7344 kPa | 525.7
365 K, 7632 kPa | 571.2
365 K, 7982 kPa | 614.6
365 K, 10427 kPa | 760.1
365 K, 14520 kPa | 857.9
366 K, 7184 kPa | 475.8
366 K, 7465 kPa | 525.6
366 K, 7771 kPa | 571.1
366 K, 8137 kPa | 614.5
366 K, 10664 kPa | 760
366 K, 14835 kPa | 857.8
367 K, 7291 kPa | 475.8
367 K, 7587 kPa | 525.6
367 K, 7907 kPa | 571.1
367 K, 8294 kPa | 614.5
367 K, 10900 kPa | 760
367 K, 15148 kPa | 857.7
368 K, 7397 kPa | 475.8
368 K, 7708 kPa | 525.6
368 K, 8044 kPa | 571.1
368 K, 8449 kPa | 614.5
368 K, 11133 kPa | 759.9
368 K, 15462 kPa | 857.7
369 K, 7504 kPa | 475.7
369 K, 7831 kPa | 525.6
369 K, 8183 kPa | 571
369 K, 8605 kPa | 614.4
369 K, 11369 kPa | 759.9
369 K, 15777 kPa | 857.6
370 K, 7612 kPa | 475.7
370 K, 7953 kPa | 525.5
370 K, 8323 kPa | 571
370 K, 8762 kPa | 614.4
370 K, 11608 kPa | 759.8
370 K, 16094 kPa | 857.5
371 K, 7719 kPa | 475.7
371 K, 8075 kPa | 525.5
371 K, 8460 kPa | 571
371 K, 8917 kPa | 614.3
371 K, 11844 kPa | 759.7
371 K, 16410 kPa | 857.4
372 K, 7825 kPa | 475.7
372 K, 8198 kPa | 525.5
372 K, 8601 kPa | 571
372 K, 9073 kPa | 614.3
372 K, 12081 kPa | 759.7
372 K, 16724 kPa | 857.4
373 K, 7931 kPa | 475.7
373 K, 8321 kPa | 525.5
373 K, 8740 kPa | 570.9
373 K, 9230 kPa | 614.3
373 K, 12318 kPa | 759.6
373 K, 17037 kPa | 857.3
374 K, 8039 kPa | 475.6
374 K, 8445 kPa | 525.4
374 K, 8878 kPa | 570.9
374 K, 9389 kPa | 614.2
374 K, 12556 kPa | 759.6
374 K, 17355 kPa | 857.2
375 K, 8147 kPa | 475.6
375 K, 8567 kPa | 525.4
375 K, 9016 kPa | 570.9
375 K, 9544 kPa | 614.2
375 K, 12795 kPa | 759.5
375 K, 17669 kPa | 857.1
376 K, 8254 kPa | 475.6
376 K, 8690 kPa | 525.4
376 K, 9155 kPa | 570.8
376 K, 9701 kPa | 614.2
376 K, 13033 kPa | 759.5
376 K, 17984 kPa | 857.1
377 K, 8362 kPa | 475.6
377 K, 8813 kPa | 525.4
377 K, 9295 kPa | 570.8
377 K, 9858 kPa | 614.1
377 K, 13272 kPa | 759.4
377 K, 18301 kPa | 857
378 K, 8469 kPa | 475.6
378 K, 8937 kPa | 525.3
378 K, 9437 kPa | 570.8
378 K, 10018 kPa | 614.1
378 K, 13511 kPa | 759.3
378 K, 18619 kPa | 856.9
379 K, 8575 kPa | 475.5
379 K, 9060 kPa | 525.3
379 K, 9576 kPa | 570.7
379 K, 10174 kPa | 614
379 K, 13747 kPa | 759.3
379 K, 18935 kPa | 856.8
380 K, 8683 kPa | 475.5
380 K, 9183 kPa | 525.3
380 K, 9715 kPa | 570.7
380 K, 10331 kPa | 614
380 K, 13988 kPa | 759.2
381 K, 8790 kPa | 475.5
381 K, 9306 kPa | 525.2
381 K, 9856 kPa | 570.7
381 K, 10492 kPa | 614
381 K, 14227 kPa | 759.2
382 K, 8897 kPa | 475.5
382 K, 9432 kPa | 525.2
382 K, 9996 kPa | 570.6
382 K, 10651 kPa | 613.9
382 K, 14466 kPa | 759.1
383 K, 9005 kPa | 475.4
383 K, 9553 kPa | 525.2
383 K, 10136 kPa | 570.6
383 K, 10808 kPa | 613.9
383 K, 14706 kPa | 759
384 K, 9112 kPa | 475.4
384 K, 9679 kPa | 525.2
384 K, 10277 kPa | 570.6
384 K, 10967 kPa | 613.8
384 K, 14944 kPa | 759
385 K, 9219 kPa | 475.4
385 K, 9804 kPa | 525.1
385 K, 10418 kPa | 570.5
385 K, 11125 kPa | 613.8
385 K, 15188 kPa | 758.9
386 K, 9326 kPa | 475.4
386 K, 9929 kPa | 525.1
386 K, 10558 kPa | 570.5
386 K, 11283 kPa | 613.8
386 K, 15426 kPa | 758.9
387 K, 9434 kPa | 475.3
387 K, 10051 kPa | 525.1
387 K, 10699 kPa | 570.5
387 K, 11442 kPa | 613.7
387 K, 15666 kPa | 758.8
388 K, 9540 kPa | 475.3
388 K, 10174 kPa | 525
388 K, 10840 kPa | 570.4
388 K, 11602 kPa | 613.7
388 K, 15904 kPa | 758.7
389 K, 9649 kPa | 475.3
389 K, 10296 kPa | 525
389 K, 10980 kPa | 570.4
389 K, 11761 kPa | 613.6
389 K, 16147 kPa | 758.7
390 K, 9756 kPa | 475.3
390 K, 10421 kPa | 525
390 K, 11124 kPa | 570.3
390 K, 11922 kPa | 613.6
390 K, 16388 kPa | 758.6
391 K, 9862 kPa | 475.2
391 K, 10547 kPa | 524.9
391 K, 11263 kPa | 570.3
391 K, 12081 kPa | 613.6
391 K, 16627 kPa | 758.6
392 K, 9969 kPa | 475.2
392 K, 10670 kPa | 524.9
392 K, 11403 kPa | 570.3
392 K, 12239 kPa | 613.5
392 K, 16868 kPa | 758.5
393 K, 10077 kPa | 475.2
393 K, 10795 kPa | 524.9
393 K, 11546 kPa | 570.2
393 K, 12400 kPa | 613.5
393 K, 17110 kPa | 758.4
394 K, 10185 kPa | 475.2
394 K, 10920 kPa | 524.9
394 K, 11688 kPa | 570.2
394 K, 12560 kPa | 613.4
394 K, 17351 kPa | 758.4
395 K, 10292 kPa | 475.1
395 K, 11045 kPa | 524.8
395 K, 11829 kPa | 570.2
395 K, 12720 kPa | 613.4
395 K, 17590 kPa | 758.3
396 K, 10400 kPa | 475.1
396 K, 11168 kPa | 524.8
396 K, 11972 kPa | 570.1
396 K, 12880 kPa | 613.4
396 K, 17831 kPa | 758.3
397 K, 10508 kPa | 475.1
397 K, 11292 kPa | 524.8
397 K, 12113 kPa | 570.1
397 K, 13040 kPa | 613.3
397 K, 18073 kPa | 758.2
398 K, 10616 kPa | 475
398 K, 11415 kPa | 524.7
398 K, 12256 kPa | 570.1
398 K, 13199 kPa | 613.3
398 K, 18315 kPa | 758.1
399 K, 10723 kPa | 475
399 K, 11538 kPa | 524.7
399 K, 12395 kPa | 570
399 K, 13361 kPa | 613.2
399 K, 18556 kPa | 758.1
